Measurements taken from patent US7951815B2, “Substituted 1,4,8-triazaspiro [4,5]decan-2-one compounds” (Gruenenthal GmbH, priority 2004, dated 2011).

Tests used:
NA transporter = assay: Inhibition of noradrenaline uptake in rat brain synaptosomes; format: biochemical; details: Table III
5-HT transporter = biological target: T1, 5-HT transporter (Rattus norvegicus, UniProt P31652); assay: Inhibition of 5-HT uptake in rat brain synaptosomes; format: biochemical; details: Table III, rat, 1 μM; for inhibition at 1 µM: read-out: Uptake 5-HT, % inhibition
T1 construct: synaptosomes of rat brain areas are freshly isolated; from tissue; host or cells: rat brain synaptosomes (P2 fraction) from marrow and pons

[1] = system: batrachotoxin (BTX) binding site of the sodium channel; assay: Affinity to the batrachotoxin (BTX) binding site of the sodium channel; details: Table III; rat cerebrocortex synaptosomes; test concentration not given

T1 sequence (P31652 whole entry): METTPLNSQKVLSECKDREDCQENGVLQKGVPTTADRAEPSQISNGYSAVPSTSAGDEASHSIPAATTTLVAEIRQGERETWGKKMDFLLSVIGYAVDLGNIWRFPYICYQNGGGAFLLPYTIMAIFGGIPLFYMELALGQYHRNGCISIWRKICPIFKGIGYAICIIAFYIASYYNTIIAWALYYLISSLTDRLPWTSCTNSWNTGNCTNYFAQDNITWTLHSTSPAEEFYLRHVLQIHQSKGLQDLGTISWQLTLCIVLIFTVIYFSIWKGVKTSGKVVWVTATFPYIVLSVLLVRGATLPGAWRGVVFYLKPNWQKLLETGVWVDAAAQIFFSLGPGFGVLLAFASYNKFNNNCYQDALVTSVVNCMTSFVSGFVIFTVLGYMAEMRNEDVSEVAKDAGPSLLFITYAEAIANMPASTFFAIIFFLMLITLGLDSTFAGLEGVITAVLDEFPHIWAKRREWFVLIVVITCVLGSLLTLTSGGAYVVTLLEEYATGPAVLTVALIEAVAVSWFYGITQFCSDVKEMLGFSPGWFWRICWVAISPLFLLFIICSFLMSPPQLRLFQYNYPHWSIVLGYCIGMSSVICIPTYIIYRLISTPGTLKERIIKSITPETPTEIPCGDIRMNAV

| SMILES | Uptake (NA), rat, 10 μM, % inhibition (NA transporter) | inhibition at 1 µM (5-HT transporter) | BTX inhibition [1] | Uptake 5-HT, rat, 1 μM, % inhibition (5-HT transporter) |
| --- | --- | --- | --- | --- |
| CC(C)CC1NC2(CCN(C(=O)COCc3ccccc3)CC2)NC1=O (stereo not drawn) [Example 80, 8-(2-Benzyloxyacetyl)-3-isobutyl-1,4,8-triazaspiro[4,5]decan-2-one] | 30% | – | – | – |
| CC(C)CC1NC2(CCN(C(=O)c3sccc3Cl)CC2)NC1=O (stereo not drawn) [Example 94, 8-(3-Chlorothiophene-2-carbonyl)-3-isobutyl-1,4,8-triazaspiro[4,5]decan-2-one] | 38% | – | – | – |
| CC(C)C1NC2(CCN(C(=O)c3c(F)c(F)c(F)c(F)c3F)CC2)NC1=O (stereo not drawn) [Example 95, 3-Isopropyl-8-pentafluorobenzoyl-1,4,8-triazaspiro[4,5]decan-2-one] | 31% | – | – | – |
| Cc1cccc(C(=O)N2CCC3(CC2)NC(=O)C(Cc2ccccc2)N3)c1C (stereo not drawn) [Example 108, 3-Benzyl-8-(2,3-dimethylbenzoyl)-1,4,8-triazaspiro[4,5]decan-2-one] | 37% | – | – | – |
| CSCCC1NC2(CCN(C(=O)c3cccnc3Oc3ccccc3)CC2)N(C)C1=O (stereo not drawn) [Example 120, 1-Methyl-3-(2-methylsulfanylethyl)-8-(2-phenoxypyridin-3-carbonyl)-1,4,8-triazaspiro[4,5]decan-2-one] | 32% | – | – | – |
| O=C(C1CCCCC1)N1CCC2(CC1)NCC(=O)N2CCOc1ccccc1 [Example 123, 8-Cyclohexanecarbonyl-1-(2-phenoxyethyl)-1,4,8-triazaspiro[4,5]decan-2-one] | 36% | – | – | – |
| CSCCC1NC2(CCN(C(=O)c3ccc4c(c3)OCO4)CC2)N(Cc2cccc(C#N)c2)C1=O (stereo not drawn) [Example 138, 3-[8-(Benzo[1,3]dioxol-5-carbonyl)-3-(2-methylsulfanylethyl)-2-oxo-1,4,8-triazaspiro[4,5]dec-1-ylmethyl]benzonitrile] | 30% | – | – | – |
| C=CCCC(=O)N1CCC2(CC1)NC(Cc1ccccc1)C(=O)N2C (stereo not drawn) [Example 139, 3-Benzyl-1-methyl-8-pent-4-enoyl-1,4,8-triazaspiro[4,5]decan-2-one] | 31% | – | – | – |
| CC(C)C1NC2(CCN(C(=O)C=Cc3ccccc3Cl)CC2)N(CCOc2ccccc2)C1=O (stereo not drawn) [Example 225, 8-[3-(2-Chlorophenyl)acryloyl]-3-isopropyl-1-(2-phenoxyethyl)-1,4,8-triazaspiro[4,5]decan-2-one] | – | 32% | 55 | – |
| CC(C)(C)CC(=O)N1CCC2(CC1)NC(Cc1ccccc1)C(=O)N2Cc1ccccc1 (stereo not drawn) [Example 230, 1,3-Dibenzyl-8-(3,3-dimethylbutyryl)-1,4,8-triazaspiro[4,5]decan-2-one] | – | 72% | 30 | – |
| CC(C)C1NC2(CCN(C(=O)c3ccccc3C(=O)OCc3ccccc3)CC2)N(Cc2ccccc2)C1=O (stereo not drawn) [Example 236, Benzyl 2-(1-benzyl-3-isopropyl-2-oxo-1,4,8-triazaspiro[4,5]decan-8-carbonyl)benzoate] | – | 48% | 50 | – |
| CCC(C(=O)N1CCC2(CC1)NC(Cc1ccccc1)C(=O)N2Cc1ccccc1)c1ccccc1 (stereo not drawn) [Example 237, 1,3-Dibenzyl-8-(2-phenylbutyryl)-1,4,8-triazaspiro[4,5]decan-2-one] | – | 63% | 42 | – |
| CSCCC1NC2(CCN(C(=O)c3c(Cl)ccc(C)c3F)CC2)N(Cc2ccccc2)C1=O (stereo not drawn) [Example 240, 1-Benzyl-8-(6-chloro-2-fluoro-3-methylbenzoyl)-3-(2-methylsulfanylethyl)-1,4,8-triazaspiro[4,5]decan-2-one] | – | 54% | 30 | – |
| CCCCN1C(=O)C(Cc2ccccc2)NC12CCN(C(=O)c1cc(C(C)(C)C)nn1C)CC2 (stereo not drawn) [Example 249, 3-Benzyl-1-butyl-8-(5-tert-butyl-2-methyl-2H-pyrazole-3-carbonyl)-1,4,8-triazaspiro[4,5]decan-2-one] | – | 55% | 34 | – |
| CCSc1ncccc1C(=O)N1CCC2(CC1)NC(CC(C)C)C(=O)N2CCCCOC(C)=O (stereo not drawn) [Example 257, Butyl 4-[8-(2-ethylsulfanylpyridin-3-carbonyl)-3-isobutyl-2-oxo-1,4,8-triazaspiro[4,5]dec-1-yl]acetate] | – | – | 35 | 59% |
| O=C(c1ccc(-c2ccccc2)cc1)N1CCC2(CC1)NCC(=O)N2Cc1ccccc1F [Example 262, 8-(Biphenyl-4-carbonyl)-1-(2-fluorobenzyl)-1,4,8-triazaspiro[4,5]decan-2-one] | – | 60% | 70 | – |
| CC(C)CC1NC2(CCN(C(=O)c3ccc4nonc4c3)CC2)N(Cc2c(Cl)cccc2Cl)C1=O (stereo not drawn) [Example 275, 8-(Benzo[1,2,5]oxadiazole-5-carbonyl)-1-(2,6-dichlorobenzyl)-3-isobutyl-1,4,8-triazaspiro[4,5]decan-2-one] | – | 33% | 61 | – |

| SMILES | Uptake (NA), rat, 10 μM, % inhibition (NA transporter) | inhibition at 1 µM (5-HT transporter) | BTX inhibition [1] | Uptake 5-HT, rat, 1 μM, % inhibition (5-HT transporter) |
| --- | --- | --- | --- | --- |
| CC(C)CC1NC2(CCN(C(=O)c3ccc(Cl)nc3)CC2)N(Cc2c(Cl)cccc2Cl)C1=O (stereo not drawn) [Example 279, 8-(6-Chloropyridin-3-carbonyl)-1-(2,6-dichlorobenzyl)-3-isobutyl-1,4,8-triazaspiro[4,5]decan-2-one] | – | 48% | 60 | – |
| COc1ccc(C(=O)N2CCC3(CC2)NCC(=O)N3Cc2ccccc2F)cc1 [Example 285, 1-(2-Fluorobenzyl)-8-(4-methoxybenzoyl)-1,4,8-triazaspiro[4,5]decan-2-one] | – | 65% | 32 | – |
| CCOC(=O)CN1C(=O)C(CC(C)C)NC12CCN(C(=O)CC(C)C)CC2 (stereo not drawn) [Example 288, Ethyl [3-isobutyl-8-(3-methylbutyryl)-2-oxo-1,4,8-triazaspiro[4,5]dec-1-yl]acetate] | – | 45% | 32 | – |
| CCCC(C)C(=O)N1CCC2(CC1)NC(CC(C)C)C(=O)N2CC(=O)OCC (stereo not drawn) [Example 291, Ethyl [3-isobutyl-8-(2-methylpentanoyl)-2-oxo-1,4,8-triazaspiro[4,5]dec-1-yl]acetate] | – | 38% | 33 | – |
| COC(=O)c1ccc(CN2C(=O)CNC23CCN(C(=O)c2cc(C(C)(C)C)oc2C)CC3)cc1 [Example 292, Methyl 4-[8-(5-tert-butyl-2-methylfuran-3-carbonyl)-2-oxo-1,4,8-triazaspiro[4,5]dec-1-ylmethyl]benzoate] | – | 40% | 40 | – |
| CCOC(=O)CN1C(=O)C(Cc2ccccc2)NC12CCN(C(=O)C1CC1)CC2 (stereo not drawn) [Example 293, Ethyl (3-benzyl-8-cyclopropanecarbonyl-2-oxo-1,4,8-triazaspiro[4,5]dec-1-yl)acetate] | – | 55% | 31 | – |
| CCOC(=O)CN1C(=O)C(Cc2ccccc2)NC12CCN(C(=O)CC(C)C)CC2 (stereo not drawn) [Example 294, Ethyl [3-benzyl-8-(3-methylbutyryl)-2-oxo-1,4,8-triazaspiro[4,5]dec-1-yl]acetate] | – | 53% | 33 | – |
| C=CCN1C(=O)C(C(C)C)NC12CCN(C(=O)Cc1cccc(OC)c1)CC2 (stereo not drawn) [Example 296, 1-Allyl-3-isopropyl-8-[2-(3-methoxyphenyl)acetyl]-1,4,8-triazaspiro[4,5]decan-2-one] | – | 30% | 36 | – |
| CCCCC(=O)N1CCC2(CC1)NC(Cc1ccccc1)C(=O)N2CC(=O)OCC (stereo not drawn) [Example 299, Ethyl (3-benzyl-2-oxo-8-pentanoyl-1,4,8-triazaspiro[4,5]dec-1-yl)acetate] | – | 66% | 36 | – |
| COC(=O)c1ccc(CN2C(=O)CNC23CCN(C(=O)c2ccc(C(C)(C)C)cc2)CC3)cc1 [Example 305, Methyl 4-[8-(4-tert-Butylbenzoyl)-2-oxo-1,4,8-triazaspiro[4,5]dec-1-ylmethyl]benzoate] | – | 37% | 51 | – |
| CCCc1c(C(=O)N2CCC3(CC2)NC(Cc2ccccc2)C(=O)N3CC(=O)OCC)cnn1-c1ccccc1 (stereo not drawn) [Example 306, Ethyl [3-benzyl-2-oxo-8-(1-phenyl-5-propyl-1H-pyrazole-4-carbonyl)-1,4,8-triazaspiro[4,5]dec-1-yl]acetate] | – | 85% | 68 | – |
| Cc1cc(C)cc(CN2C(=O)C(CC(C)C)NC23CCN(C(=O)CN(C)C)CC3)c1 (stereo not drawn) [Example 309, 8-(2-Dimethylaminoacetyl)-1-(3,5-dimethylbenzyl)-3-isobutyl-1,4,8-triazaspiro[4,5]decan-2-one] | – | 43% | 82 | – |
| CCCc1ccc(C(=O)N2CCC3(CC2)NC(CC(C)C)C(=O)N3Cc2c(Cl)cccc2Cl)cc1 (stereo not drawn) [Example 317, 1-(2,6-Dichlorobenzyl)-3-isobutyl-8-(4-propylbenzoyl)-1,4,8-triazaspiro[4,5]decan-2-one] | – | 33% | 62 | – |
| C=CCN1C(=O)C(CCSC)NC12CCN(C(=O)c1cnn(-c3ccccc3)c1CCC)CC2 (stereo not drawn) [Example 323, 1-Allyl-3-(2-methylsulfanylethyl)-8-(1-phenyl-5-propyl-1H-pyrazole-4-carbonyl)-1,4,8-triazaspiro[4,5]decan-2-one] | – | 33% | 43 | – |
| Cc1ccc(C(=O)N2CCC3(CC2)NC(CC(C)C)C(=O)N3Cc2c(Cl)cccc2Cl)c(F)c1F (stereo not drawn) [Example 324, 1-(2,6-Dichlorobenzyl)-8-(2,3-difluoro-4-methylbenzoyl)-3-isobutyl-1,4,8-triazaspiro[4,5]decan-2-one] | – | 31% | 62 | – |
| CCOC(=O)CN1C(=O)C(Cc2ccccc2)NC12CCN(C(=O)COCc1ccccc1)CC2 (stereo not drawn) [Example 329, Ethyl [3-benzyl-8-(2-benzyloxyacetyl)-2-oxo-1,4,8-triazaspiro[4,5]dec-1-yl]acetate] | – | 55% | 43 | – |
| C=CCN1C(=O)C(CCSC)NC12CCN(C(=O)c1cc(C(C)(C)C)nn1C)CC2 (stereo not drawn) [Example 330, 1-Allyl-8-(5-tert-butyl-2-methyl-2H-pyrazole-3-carbonyl)-3-(2-methylsulfanylethyl)-1,4,8-triazaspiro[4,5]decan-2-one] | – | 45% | 31 | – |
